In patent US9320718B2, “Multilayer coating form of orally administered pharmaceutical composition containing omega-3 fatty acid or alkyl ester thereof and statin based drug” (KUHNIL PHARM. CO., LTD., priority 2012, dated 2016):
One block for each compound: values may come before it.

Columns and labels:
Assay type in all cases: physicochemical
[1] = Compatibility of atorvastatin and coating material: related compounds on storage under severe conditions (HPLC); details: atorvastatin 0.5 mg with coating material 2.5 mg, vacuum-dried, stored at about 60° C., relative humidity about 85%
Description: (§1) To form an atorvastatin-containing drug-coating layer, compatibility of atorvastatin with various coating materials (coating agents and surfactants) were evaluated. About 2.5 mg of each coating material as shown in Table 2 was dissolved in 5 mL of a 75% aqueous ethanol solution, and about 0.5 mg of atorvastatin was added thereto and then completely dissolved. About 0.5 mg of atorvastatin was completely dissolved in 5 mL of a 75% aqueous ethanol solution as a control group for the compatibility evaluation. Each of the resulting solutions was vacuum-dried at about 50° C. for about 24 hours to completely remove the solvent, thereby preparing test samples. While each test temple was stored under severe conditions (at a temperature of about 60° C. and a relative humidity of about 85%), a degree of generation of related compounds with time was observed. The related compounds were analyzed by HPLC in the following manner.
<Atorvastatin Analysis Method>
(§2) Each test sample was dissolved in 25 mL of methanol, followed by a 2-fold dilution with a mobile phase and filtration through a 0.45-um filter, thereby preparing analysis samples.
Mobile phase; acetonitrile: 0.5% (v/v) aqueous formic acid solution=50:50

[2] = Compatibility of pitavastatin and coating material: related compounds on storage under severe conditions (HPLC); details: pitavastatin 0.5 mg with coating material 2.5 mg, vacuum-dried, stored at about 60° C., relative humidity about 85%
Description: as §1, with “To form a pitavastatin-containing drug-coating layer,” for “To form an atorvastatin-containing drug-coating layer,”, “compatibility of pitavastatin with various” for “compatibility of atorvastatin with various”, “in Table 3 was dissolved” for “in Table 2 was dissolved”, “mg of pitavastatin was added” for “mg of atorvastatin was added”, “mg of pitavastatin alone was completely” for “mg of atorvastatin was completely”, “degree of generated related compounds” for “degree of generation of related compounds”
<Pitavastatin Analysis Method>
as §2
Mobile phase; acetonitrile: 0.1% (v/v) aqueous trifluoroacetic acid (TFA) solution=60:40

[3] = Compatibility of rosuvastatin and coating material: related compounds on storage under severe conditions (HPLC); details: rosuvastatin 0.5 mg with coating material 2.5 mg, vacuum-dried, stored at about 60° C., relative humidity about 85%
Description: To form a rosuvastatin-containing drug-coating layer, compatibility of rosuvastatin with various coating materials (coating agents and surfactants) were evaluated. About 2.5 mg of each coating material as shown in Table 1 was dissolved in 5 mL of a 75% aqueous ethanol solution, and about 0.5 mg of rosuvastatin was added thereto and then completely dissolved. About 0.5 mg of rosuvastatin alone was completely dissolved in 5 mL of a 75% aqueous ethanol solution as a control group for the compatibility evaluation. Each of the resulting solutions was vacuum-dried at about 50° C. for about 24 hours to completely remove the solvent, thereby preparing a test sample. While each test temple was stored under severe conditions (at a temperature of about 60° C. and a relative humidity of about 85%), a degree of generation of related compounds with time was observed. The related compounds were analyzed by high-performance liquid chromatography (HPLC) in the following manner.
<Rosuvastatin Analysis Method>
The test sample was dissolved in 25 mL of methanol, followed by a 2-fold dilution with a mobile phase and filtration through a 0.45-um filter, thereby preparing an analysis sample.
Mobile phase; Acetonitrile: 0.5% (v/v) aqueous formic acid solution=50:50

Related compound (%, 1st week) [1]: 0.3%
Related compound (%, 1st week) ([1]; listed as atorvastatin): About 0.3%
Related compound (%, 3rd week) [1]: 3.3%
Related compound (%, 3rd week) ([1]; listed as atorvastatin): about 3.3%
Compound: CC(C)c1c(C(=O)Nc2ccccc2)c(-c2ccccc2)c(-c2ccc(F)cc2)n1CC[C@@H](O)C[C@@H](O)CC(=O)O [Atorvastatin]

Related compound (%, 1st week) [2]: 0.1%
Related compound (%, 1st week) ([2]; listed as pitavastatin): About 0.1%
Related compound (%, 3rd week) [2]: 0.2%
Related compound (%, 3rd week) ([2]; listed as pitavastatin): about 0.2%
Compound: O=C(O)C[C@H](O)C[C@H](O)/C=C/c1c(C2CC2)nc2ccccc2c1-c1ccc(F)cc1 [Pitavastatin]

Related compound (%, 1st week) [3]: 1.4%
Related compound (%, 1st week) ([3]; listed as rosuvastatin): About 1.4%
Related compound (%, 3rd week) [3]: 5.2%
Related compound (%, 3rd week) ([3]; listed as rosuvastatin): about 5.4%
Compound: CC(C)c1nc(N(C)S(C)(=O)=O)nc(-c2ccc(F)cc2)c1/C=C/[C@@H](O)C[C@@H](O)CC(=O)O [Rosuvastatin]
